For 24 compounds, melting point results are on record in patent publication US8551999B2, “Heterocyclic compound and pharmaceutical composition thereof” (Otsuka Pharmaceutical Co., Ltd., priority 2007, dated 2013).

For orientation: melting point means the temperature, or range, at which the solid turns liquid.

`Br.COCc1ccc(CN2CCN(C(=O)c3cc4ccc(Oc5ccc(NC(=O)c6ccc(Cl)c(Cl)c6)cn5)cc4n3C)CC2)cc1` [Example 259, 3,4-Dichloro-N-(6-{2-[4-(4-methoxymethylbenzyl)piperazine-1-carbonyl]-1-methyl-1H-indol-6-yloxy}pyridin-3-yl)benzamide hydrobromide] displayed a melting point of 243.6 to 247.7 °C. Turning to `Br.CC(C)Cc1ccc(CN2CCN(C(=O)c3cc4ccc(Oc5ccc(NC(=O)c6ccc(Cl)c(Cl)c6)cn5)cc4n3C)CC2)cc1` [Example 260, 3,4-Dichloro-N-(6-{2-[4-(4-isobutylbenzyl)piperazine-1-carbonyl]-1-methyl-1H-indol-6-yloxy}pyridin-3-yl)benzamide hydrobromide], the melting point lay in the range of 255.8 to 257.4 °C. Next, `Br.Cn1c(C(=O)N2CCN(Cc3ccc(C(F)(F)F)cc3)CC2)cc2ccc(Oc3ccc(NC(=O)c4ccc(Cl)c(Cl)c4)cn3)cc21` [Example 262, 3,4-Dichloro-N-(6-{1-methyl-2-[4-(4-trifluoromethylbenzyl)-piperazine-1-carbonyl]-1H-indol-6-yloxy}pyridin-3-yl)benzamide hydrobromide]: 259.4 to 260.7 °C; `Br.Cn1c(C(=O)N2CCN(Cc3ccc(C#N)cc3)CC2)cc2ccc(Oc3ccc(NC(=O)c4ccc(Cl)c(Cl)c4)cn3)cc21` [Example 263, 3,4-Dichloro-N-(6-{2-[4-(4-cyanobenzyl)piperazine-1-carbonyl]-1-methyl-1H-indol-6-yloxy}pyridin-3-yl)benzamide hydrobromide]: 263.9 to 267.4 °C. In the case of `Br.Cn1c(C(=O)N2CCN(Cc3ccc(OC(F)(F)F)cc3)CC2)cc2ccc(Oc3ccc(NC(=O)c4ccc(Cl)c(Cl)c4)cn3)cc21` [Example 264, 3,4-Dichloro-N-(6-{1-methyl-2-[4-(4-trifluoromethoxybenzyl)-piperazine-1-carbonyl]-1H-indol-6-yloxy}pyridin-3-yl)benzamide hydrobromide], the melting point was 261.6 to 264.7 °C. Next, `Br.CC(C)Oc1ccc(CN2CCN(C(=O)c3cc4ccc(Oc5ccc(NC(=O)c6ccc(Cl)c(Cl)c6)cn5)cc4n3C)CC2)c(F)c1` [Example 265, 3,4-Dichloro-N-(6-{2-[4-(2-fluoro-4-isopropoxybenzyl)piperazine-1-carbonyl]-1-methyl-1H-indol-6-yloxy}pyridin-3-yl)benzamide hydrobromide]: 242.5 to 246.7 °C.

`Br.CC(C)Oc1ccc(CN2CCN(C(=O)c3cc4ccc(Oc5ccc(NC(=O)c6ccc(Cl)c(Cl)c6)cn5)cc4n3C)CC2)cc1F` [Example 266, 3,4-Dichloro-N-(6-{2-[4-(3-fluoro-4-isopropoxybenzyl)piperazine-1-carbonyl]-1-methyl-1H-indol-6-yloxy}pyridin-3-yl)benzamide hydrobromide] gave a melting point of 244.3 to 247 °C. As for `Br.Cn1c(C(=O)N2CCN(Cc3ccc(OCC(F)(F)F)cc3)CC2)cc2cc(Oc3ccc(NC(=O)c4ccc(C(F)(F)F)cc4O)cn3)ccc21` [Example 267, 2-Hydroxy-N-[6-(1-methyl-2-{4-[4-(2,2,2-trifluoroethoxy)benzyl]-piperazine-1-carbonyl}-1H-indol-5-yloxy)pyridin-3-yl]-4-tri-fluoromethylbenzamide hydrobromide], the figure is 214 to 219 °C (dec.); as for `Br.Cn1c(C(=O)N2CCN(Cc3ccc(OCC(F)F)cc3)CC2)cc2ccc(Oc3ccc(NC(=O)c4ccc(Cl)c(Cl)c4)cn3)cc21` [Example 268, 3,4-Dichloro-N-[6-(2-{4-[4-(2,2-difluoroethoxy)benzyl]piperazine-1-carbonyl}-1-methyl-1H-indol-6-yloxy)pyridin-3-yl]benzamide hydrobromide], 221.5 to 222.3 °C; as for `Cc1ccc(C(=O)N(C)c2ccc(Oc3ccc4cc(C(=O)N5CCN(Cc6ccc(OC(F)F)cc6)CC5)n(C)c4c3)nc2)cc1` [Example 276, N-(6-{2-[4-(4-Difluoromethoxybenzyl)piperazine-1-carbonyl]-1-methyl-1H-indol-6-yloxy}pyridin-3-yl)-4,N-dimethylbenzamide], 140.1 to 141.3 °C. The compound `Br.CN(C(=O)c1ccc(OC(F)F)cc1)c1ccc(Oc2ccc3cc(C(=O)N4CCN(Cc5ccc(OC(F)F)cc5)CC4)n(C)c3c2)nc1` [Example 282, 4-Difluoromethoxy-N-(6-{2-[4-(4-difluoromethoxybenzyl)piperazine-1-carbonyl]-1-methyl-1H-indol-6-yloxy}pyridin-3-yl)-N-methyl-benzamide hydrobromide] gave a melting point of 198.7 to 200.5 °C. As to `Br.CN(C(=O)c1ccc(OC(F)F)cc1)c1ccc(Oc2ccc3cc(C(=O)N4CCN(Cc5ccc(OCC(F)F)cc5)CC4)n(C)c3c2)nc1` [Example 283, N-[6-(2-{4-[4-(2,2-Difluoroethoxy)benzyl]piperazine-1-carbonyl}-1-methyl-1H-indol-6-yloxy)pyridin-3-yl]-4-difluoromethoxy-N-methylbenzamide hydrobromide], the melting point was in the range of 196.9 to 198.6 °C. For the compound `Br.CN(C(=O)c1ccc(OC(F)F)cc1)c1ccc(Oc2ccc3cc(C(=O)N4CCN(Cc5ccc(OCC(F)(F)F)cc5)CC4)n(C)c3c2)nc1` [Example 284, 4-Difluoromethoxy-N-methyl-N-[6-(1-methyl-2-{4-[4-(2,2,2-tri-fluoroethoxy)benzyl]piperazine-1-carbonyl}-1H-indol-6-yloxy)-pyridin-3-yl]benzamide hydrobromide], the melting point fell in the range of 203.8 to 205.6 °C. As for `CN(c1ccc(Oc2ccc3cc(C(=O)N4CCN(Cc5ccc(OCC(F)(F)F)cc5)CC4)[nH]c3c2)nc1)S(C)(=O)=O` [Example 285, N-Methyl-N-[6-(2-{4-[4-(2,2,2-trifluoroethoxy)benzyl]piperazine-1-carbonyl}-1H-indol-6-yloxy)pyridin-3-yl]methanesulfonamide], the melting point was in the range of 167 to 168.1 °C. For `Br.C[C@H]1CN(C(=O)c2cc3ccc(Oc4ccc(NC(=O)c5ccc(OC(F)(F)F)cc5)cn4)cc3n2C)CCN1Cc1ccc(OCC(F)(F)F)cc1` [Example 293, N-[6-(1-Methyl-2-{(S)-3-methyl-4-[4-(2,2,2-trifluoroethoxy)-benzyl]piperazine-1-carbonyl}-1H-indol-6-yloxy)pyridin-3-yl]-4-trifluoromethoxybenzamide hydrobromide], the melting point was in the range of 199.4 to 203.1 °C.

`Br.Cc1cc(Oc2ccc3cc(C(=O)N4CCN(Cc5ccc(OC(F)F)cc5)CC4)n(C)c3c2)ncc1N(C)S(=O)(=O)c1ccc(Cl)c(Cl)c1` [Example 311, 3,4-Dichloro-N-(6-{2-[4-(4-difluoromethoxybenzyl)piperazine-1-carbonyl]-1-methyl-1H-indol-6-yloxy}-4-methylpyridin-3-yl)-N-methylbenzenesulfonamide hydrobromide] gave a melting point of 213.5 to 215.3 °C. With `Cc1cc(Oc2ccc3cc(C(=O)N4CCN(Cc5ccc(OC(C)C)cc5)CC4)n(C)c3c2)ncc1N(C)S(=O)(=O)c1ccc(Cl)c(Cl)c1` [Example 313, 3,4-Dichloro-N-(6-{2-[4-(4-isopropoxybenzyl)piperazine-1-carbonyl]-1-methyl-1H-indol-6-yloxy}-4-methylpyridin-3-yl)-N-methylbenzenesulfonamide], the melting point lay in the range of 151 to 151.6 °C.

Take `Br.Cn1c(C(=O)N2CCN(Cc3ccc4c(c3)OCO4)CC2)cc2cc(Oc3ccc(NC(=O)c4ccc(C(F)(F)F)cc4F)cn3)ccc21` [Example 316, N-{6-[2-(4-Benzo[1,3]dioxol-5-ylmethylpiperazine-1-carbonyl)-1-methyl-1H-indol-5-yloxy]pyridin-3-yl}-2-fluoro-4-trifluoromethyl-benzamide hydrobromide]: the melting point was 254 to 257 °C (dec.). Regarding `Br.CN(C(=O)c1ccc(C(F)(F)F)cc1F)c1ccc(Oc2ccc3c(c2)cc(C(=O)N2CCN(Cc4ccc5c(c4)OCO5)CC2)n3C)nc1` [Example 319, N-{6-[2-(4-Benzo[1,3]dioxol-5-ylmethylpiperazine-1-carbonyl)-1-methyl-1H-indol-5-yloxy]pyridin-3-yl}-2-fluoro-N-methyl-4-tri-fluoromethylbenzamide hydrobromide], the melting point was 187 to 190 °C. `Br.COc1ccc(CN2CCN(C(=O)c3cc4ccc(Oc5ccc(N(C)C(=O)c6ccc(C(F)(F)F)cc6)cn5)cc4n3C)CC2)cc1` [Example 322, N-(6-{2-[4-(4-Methoxybenzyl)piperazine-1-carbonyl]-1-methyl-1H-indol-6-yloxy}pyridin-3-yl)-N-methyl-4-trifluoromethylbenzamide hydrobromide] yielded a melting point of 233 to 235 °C. `COc1ccc(CN2CCN(C(=O)c3cc4cccc(Oc5ccc(N(C)C(=O)c6ccc(C(F)(F)F)cc6)cn5)c4n3C)CC2)cc1.O=C(O)C(=O)O` [Example 323, N-(6-{2-[4-(4-Methoxybenzyl)piperazine-1-carbonyl]-1-methyl-1H-indol-7-yloxy}pyridin-3-yl)-N-methyl-4-trifluoromethylbenzamide oxalate] showed a melting point of 134 to 135 °C. Compound `Br.CN(C(=O)c1ccc(C(F)(F)F)cc1)c1ccc(Oc2cccc3cc(C(=O)N4CCN(Cc5ccc(C#N)cc5)CC4)n(C)c23)nc1` [Example 324, N-(6-{2-[4-(4-Cyanobenzyl)piperazine-1-carbonyl]-1-methyl-1H-indol-7-yloxy}pyridin-3-yl)-N-methyl-4-trifluoromethylbenzamide hydrobromide] had a melting point of 200 to 201 °C. `COc1ccc(CN2CCN(C(=O)c3cc4c(Oc5ccc(N(C)C(=O)c6ccc(C(F)(F)F)cc6)cn5)cccc4n3C)CC2)cc1.O=C(O)C(=O)O` [Example 325, N-(6-{2-[4-(4-Methoxybenzyl)piperazine-1-carbonyl]-1-methyl-1H-indol-4-yloxy}pyridin-3-yl)-N-methyl-4-trifluoromethylbenzamide oxalate] registered a melting point of 139 to 141 °C. For `Br.CN(C(=O)c1ccc(C(F)(F)F)cc1)c1ccc(Oc2cccc3c2cc(C(=O)N2CCN(Cc4ccc(C#N)cc4)CC2)n3C)nc1` [Example 326, N-(6-{2-[4-(4-Cyanobenzyl)piperazine-1-carbonyl]-1-methyl-1H-indol-4-yloxy}pyridin-3-yl)-N-methyl-4-trifluoromethylbenzamide hydrobromide], the melting point is 273 to 276 °C.
